Columns and labels:
[1] = molecular target: T1, human recombinant bradykinin B1 receptor (Homo sapiens, UniProt P46663); test: Human recombinant bradykinin B1 receptor competitive radioligand binding; settings: hB1 expressed in CHO cells, [3H]-[Des-Arg10] Kallidin radioligand; read-out: B1 binding
T1 construct: host or cells: CHO cells, clone hB1-A5
T1 sequence (P46663 1-353): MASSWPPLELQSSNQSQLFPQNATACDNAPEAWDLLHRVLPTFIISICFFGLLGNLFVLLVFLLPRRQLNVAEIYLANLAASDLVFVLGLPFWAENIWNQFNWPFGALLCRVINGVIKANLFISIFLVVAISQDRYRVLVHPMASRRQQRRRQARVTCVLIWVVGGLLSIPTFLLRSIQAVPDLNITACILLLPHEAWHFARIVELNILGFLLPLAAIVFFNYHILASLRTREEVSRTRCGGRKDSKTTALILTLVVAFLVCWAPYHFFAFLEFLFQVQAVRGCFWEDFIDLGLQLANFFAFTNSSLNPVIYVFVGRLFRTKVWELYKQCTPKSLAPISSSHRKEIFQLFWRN
Description: Assessment of Ligand Binding Affinity to B1 and B2 Receptors In Vitro by Competitive Radioligand Binding Assay
Binding assays were carried out on human recombinant bradykinin) receptors (expressed in CHO cells, hB1-A5) according to the Euroscreen Technical Data Sheet (Cat.No.:ES-091). 20 μg protein/tube was incubated with [3,4-prolyl-3,4-^3H(N)]-[Des-Arg^10] Kallidin as radioligand. Non specific binding was determined in the presence of 10 μM Lys-des-Arg^9-Bradykinin. The final incubation volume was 250 μl. Samples were incubated for 15 min. at 25° C. then were rapidly vacuum filtered through GF/B filters presoaked for at least 1 h in 0.5% PEI. Radioactivity was determined by liquid scintillation spectroscopy.
The ligand displacement by the compounds was determined using a minimum of seven concentrations in triplicate, and experiments were repeated at least two times. The specific radioligand binding is defined as the difference between total binding and the non-specific binding determined in the presence of an excess of unlabelled ligand. Results are expressed as a percent inhibition of specific binding obtained in the presence of RGH-478 or reference drugs. IC50 values (i.e. concentration of compound giving 50% inhibition of specific binding) were calculated from concentration-displacement curves by sigmoidal fitting using GraphPad Prism Software 4.0. Ki values (i.e. inhibition constants) were calculated using the Cheng-Prusoff equation. KD was determined from the Scatchard plot. (Editor-in-chief: Enna, S. J. and Williams, M. Current protocols in pharmacology vol. 1. John Wiley & sons Inc., 1998)

[2] = molecular target: T2, recombinant human B1 receptors (Homo sapiens, UniProt P46663); test: Functional assay: antagonist potency by cytosolic calcium measurement (plate reader fluorimeter) in CHO-B1 cells, agonist LysDABK; assay type: cell-based; settings: CHO-B1 cells, inhibition of LysDABK (EC80)-evoked [Ca2+]i elevation; read-out: B1 func.
T2 construct: host or cells: CHO (CHO-B1)
T2 sequence (P46663 1-353): T1 sequence (P46663 1-353)
Description: Assessment of Antagonist Potency at B1 Receptors In Vitro by Measurement of Cytosolic Calcium Ion Concentration with a Plate Reader Fluorimeter in Cells Expressing Recombinant Human B1 Receptors
Chinese hamster ovary (CHO) cells stably expressing recombinant human B1 (CHO-B1, Euroscreen) receptors were cultured in Dulbecco's Modified Eagle's Medium (DMEM) containing 10% Fetal Calf Serum (FCS), 100 U/ml penicillin, 0.1 mg/ml streptomycin, 0.25 μg/ml amphotericin B, 1% Minimum Essential Medium Eagle (MEM), non essential amino acid solution, 600 μg/ml G418. Cells were kept at 37° C. in a humidified incubator in an atmosphere of 5% CO2/95% air and were passaged 1:4 three times a week. Cells were plated at 1.5−2.5×10^4 cell/well on standard 96-well microplates, measurements of cytosolic calcium ion concentration ([Ca^2+]i) were carried out 1-2 days after cell plating.
Measurements of [Ca^2+]i were carried out on CHO-B1 cells stably expressing human B1 receptors, respectively. Cells were grown in standard 96-well microplates and before the measurement were loaded with a fluorescent Ca^2+-sensitive dye, fluo-4/AM (2 μM): after removing the culture medium the dye was added to the cells (dissolved in assay buffer: 145 mM NaCl, 5 mM KCl, 2 mM MgCl2, 2 mM CaCl2, 10 mM HEPES, 20 mM D-glucose, 2 mM probenecid, 100 μl/well) and cells were incubated at 37° C. in a humidified incubator in an atmosphere of 5% CO2/95% air for 40-120 min. To stop dye loading cells were washed twice with assay buffer. After washing, various concentrations of the test compounds (diluted in extracellular medium from a DMSO stock solution, final DMSO concentration was <0.1%) or buffer were added to each well depending on the experimental setup. After incubation at 37° C. for 20-25 min. baseline and agonist-evoked changes of [Ca^2+]; were measured column by column with a plate reader fluorimeter (Fluoroskan Ascent, Labsystems). Excitation and detection of emission was carried out from the bottom of the plate. Filters used for Fluo-4: excitation filter 485 nm, emission filter 538 nm. The whole measurement process was performed at 37° C. and was controlled by custom software. Inhibitory potency of the test compounds was assessed by measuring the reduction in the agonist-evoked [Ca^2+]i-elevation in the presence of different concentrations of the compounds. The agonist was LysDABK for CHO-B1 cells. Agonist was applied at an EC80 concentration; the EC80-values were derived from daily determined dose-response curves. Fluorescence data were expressed as ΔF/F (fluorescence change normalized to baseline). All treatments on a single plate were measured in multiple wells. Data from all wells with the same treatment were averaged and the average values were used for analysis. Inhibitory potency of a compound at a single concentration point was expressed as percent inhibition of the control agonist response. Sigmoidal concentration-inhibition curves were fitted to the data (derived from at least three independent experiments) and IC50-values were determined as the concentration that produces half of the maximal inhibition caused by the compound.

SMILES	Ki [1] [nM]	IC50 [2] [nM]
Cc1cc(C(=O)NC2(C(=O)NCc3ccc(-n4c(-c5nnn(C)n5)c(Cl)c5ccccc54)cc3)CC2)no1 [Example 26, 5-Methyl-isoxazole-3-carboxylic acid (1-{4-[3-chloro-2-(2-methyl-2H-tetrazol-5-yl)-indol-1-yl]-benzylcarbamoyl}-cyclopropyl)-amide]	< 20	< 20
Cc1nc(-c2c(Cl)c3ccccc3n2-c2ccc(CNC(=O)C3(NC(=O)C=Cc4ccoc4)CC3)cc2)no1 [Example 169, 1-(3-Furan-3-yl-acryloylamino)-cyclopropanecarboxylic acid 4-[3-chloro-2-(5-methyl-[1,2,4]oxadiazol-3-yl)-indol-1-yl]-benzylamide]	< 20	< 20
Cn1nnc(-c2c(Cl)c3ccccc3n2-c2ccc(CNC(=O)C3(NC(=O)c4cc(C5CC5)on4)CC3)cc2)n1 [Example 24, 5-Cyclopropyl-isoxazole-3-carboxylic acid (1-{4-[3-chloro-2-(2-methyl-2H-tetrazol-5-yl)-indol-1-yl]-benzylcarbamoyl}-cyclopropyl)-amide]	< 20	< 20
Cc1nc(-c2c(Cl)c3ccccc3n2-c2ccc(CNC(=O)C3(NC(=O)CC(F)(F)F)CC3)c(F)c2)no1 [Example 108, 1-(3,3,3-Trifluoro-propionylamino)-cyclopropanecarboxylic acid 4-[3-chloro-2-(5-methyl-[1,2,4]oxadiazol-3-yl)-indol-1-yl]-2-fluoro-benzylamide]	< 20	< 20
CCOC(=O)c1c(Cl)c2ccccc2n1-c1ccc(CNC(=O)C2(NC(=O)c3cc(OC)no3)CC2)cc1 [Example 34, 3-Chloro-1-{4-[({1-[(3-methoxy-isoxazole-5-carbonyl)-amino]-cyclopropane-carbonyl}-amino)-methyl]-phenyl}-1H-indole-2-carboxylic acid ethyl ester]	< 20	20 to 100
COc1cc(C(=O)NC2(C(=O)NCc3ccc(-n4c(-c5nnn(C)n5)c(Cl)c5ccccc54)cc3)CC2)on1 [Example 2, 3-Methoxy-isoxazole-5-carboxylic acid (1-{4-[3-chloro-2-(2-methyl-2H-tetrazol-5-yl)-indol-1-yl]-benzylcarbamoyl}-cyclopropyl)-amide]	< 20	< 20
Cc1noc(-c2c(Cl)c3ccccc3n2-c2ccc(CNC(=O)C3(NC(=O)c4ccnc(F)c4)CC3)cc2)n1 [Example 113, N-(1-{4-[3-Chloro-2-(3-methyl-[1,2,4]oxadiazol-5-yl)-indol-1-yl]-benzylcarbamoyl}-cyclopropyl)-2-fluoro-isonicotinamide]	< 20	< 20
COc1cc(C(=O)NC2(C(=O)NCc3ccc(-n4c(-c5nnn(C)n5)c(Cl)c5ccccc54)cn3)CC2)on1 [Example 60]	< 20	< 20
COc1ccc2c(c1)cc(-c1nnc(C)o1)n2-c1ccc(CNC(=O)C2(NC(=O)c3cncc(C(F)(F)F)c3)CC2)cc1 [Example 125, N-(1-{4-[5-Methoxy-2-(5-methyl-[1,3,4]oxadiazol-2-yl)-indol-1-yl]-benzylcarbamoyl}-cyclopropyl)-5-trifluoromethyl-nicotinamide]	< 20	< 20
Cc1nc(-c2c(Cl)c3ccccc3n2-c2ccc(CNC(=O)C3(NC(=O)c4ccco4)CC3)cc2)no1 [Example 145, Furan-2-carboxylic acid (1-{4-[3-chloro-2-(5-methyl-[1,2,4]oxadiazol-3-yl)-indol-1-yl]-benzylcarbamoyl}-cyclopropyl)-amide]	20 to 100	20 to 100
Cc1nc(-c2c(Cl)c3ccccc3n2-c2ccc(CNC(=O)C3(NC(=O)c4cnc5ccccc5c4)CC3)cc2)no1 [Example 159, Quinoline-3-carboxylic acid (1-{4-[3-chloro-2-(5-methyl-[1,2,4]oxadiazol-3-yl)-indol-1-yl]-benzylcarbamoyl}-cyclopropyl)-amide]	< 20	< 20
Cc1nc(-c2c(Cl)c3ccccc3n2-c2ccc(CNC(=O)C3(NC(=O)C4CNC(=O)N4)CC3)cc2)no1 (stereo not shown) [Example 122, 2-Oxo-imidazolidine-4-carboxylic acid (1-{4-[3-chloro-2-(5-methyl-[1,2,4]oxadiazol-3-yl)-indol-1-yl]-benzylcarbamoyl}-cyclopropyl)-amide]	20 to 100	20 to 100
COc1cc(C(=O)NC2(C(=O)NCc3ccc(-n4c(-c5noc(=O)n5C)c(Cl)c5ccccc54)cc3)CC2)on1 [Example 201, 3-Methoxy-isoxazole-5-carboxylic acid (1-{4-[3-chloro-2-(4-methyl-5-oxo-4,5-dihydro-[1,2,4]oxadiazol-3-yl)-indol-1-yl]-benzylcarbamoyl}-cyclopropyl)-amide]	< 20	< 20
Cc1nc(-c2c(Cl)c3ccccc3n2-c2ccc(CNC(=O)C3(NC(=O)c4sc(C)nc4C)CC3)cc2)no1 [Example 150, 2,4-Dimethyl-thiazole-5-carboxylic acid (1-{4-[3-chloro-2-(5-methyl-[1,2,4]oxadiazol-3-yl)-indol-1-yl]-benzylcarbamoyl}-cyclopropyl)-amide]	< 20	20 to 100
Cc1nnc(-c2c(Cl)c3ccccc3n2-c2ccc(CNC(=O)C3(NC(=O)C(F)(F)F)CC3)cc2)o1 [Example 6, 1-(2,2,2-Trifluoro-acetylamino)-cyclopropanecarboxylic acid 4-[3-chloro-2-(5-methyl-[1,3,4]oxadiazol-2-yl)-indol-1-yl]-benzylamide]	20 to 100	20 to 100
NC(=O)c1c(Cl)c2ccccc2n1-c1ccc(CNC(=O)C2(NC(=O)C(F)(F)F)CC2)cc1 [Example 187, 3-Chloro-1-[4-({[1-(2,2,2-trifluoro-acetylamino)-cyclopropanecarbonyl]-amino}-methyl)-phenyl]-1H-indole-2-carboxylic acid amide]	100 to 500	20 to 100
Cn1nnc(-c2c(Cl)c3cc(Cl)ccc3n2-c2ccc(CNC(=O)C3(NC(=O)C(F)(F)F)CC3)c(F)c2)n1 [Example 22, 1-(2,2,2-Trifluoro-acetylamino)-cyclopropanecarboxylic acid 4-[3,5-dichloro-2-(2-methyl-2H-tetrazol-5-yl)-indol-1-yl]-2-fluoro-benzylamide]	< 20	< 20

Source: patent US20130217702A1 (Richter Gedeon Nyrt., priority 2010, published 2013)
